Measured values from patent publication US9775844B2, “Heterocyclic compounds and uses thereof” (Infinity Pharmaceuticals, Inc., priority 2014, dated 2017).

Tests used:
[1] = tested on: KPC Pancreatic Cancer cells; experiment: RNA expression profiling (TLDA) of KPC pancreatic cancer tumors; type: in vivo, mouse
Method: RNA expression profiling was performed for immuno-phenotyping with a Taqman low density array (TLDA).
For mouse tumors, snap frozen samples were powdered with a Genogrinder at liquid nitrogen temperatures and RNA was isolated with Trizol. Next, the sample was cleaned-up using Qiashredder, and then using a RNeasy kit.
CT values were used for analysis. For each sample Si and each gene, the following values were calculated: dCT(Si,gene)=CT(Si,gene)−CT(Si,ACTB) ddCT(Si,gene)=dCT(Si,gene)−median(dCT(vehicle treated samples, gene)) RQ(Si, gene)=2^(−ddCT(Si,gene))
This produced a matrix of RQ values: 48 genes (rows)×39 samples (cols).
The analysis used R package Non-negative Matrix Factorization (NMF) with rank=3 and the “lee” algorithm.

4T1 = 4T1 breast cancer model
[2] = Oral exposure in the monkey; type: in vivo
[3] = tested on: CXCL12-induced pAKT in T-cells; experiment: CXCL12-induced pAKT assay in T-cells; type: cell-based, human; details: FIG. 9
Excerpt: There was a tight correlation between the EC50s observed in the CXCL12-induced pAKT assay and the T-cell migration assay.

[4] = tested on: spleen T cell proliferation; experiment: Ex vivo T-cell proliferation assay with tumor-derived cells from treated mice; type: in vivo
[5] = Mouse pharmacokinetics, oral single and repeat dose; details: in vivo, 10 mg/kg in NMP solution, read-out: Mouse PK AUClast @ 10 mg/kg in NMP solution
human hepatocytes = experiment: Human hep viability; type: cell-based; details: Hepatocyte
tumor = experiment: Tumor growth, Compound BB alone and co-administered with 5-FU (FIG. 35); type: in vivo

Structure (SMILES): C[C@H](NC(=O)c1c(N)nn2cccnc12)c1cc2cccc(C#Cc3cnn(C)c3)c2c(=O)n1-c1ccccc1 [Compound BB]
- M2 macrophage markers VEGF and ARG-1 (RNA) ([1]; 3 mg/kg, with or without PDL-1 antibody): trended towards reduction
- T regulatory and T effector genes (RNA) ([1]; alone): trend in lower T regulatory and T effector genes
- tumor growth, orthotopic 4T1 breast cancer model (4T1; 7.5 mg/kg PO once daily, FIG. 33A): reduced tumor growth
- total luciferase flux, orthotopic 4T1 breast cancer model (4T1; 7.5 mg/kg PO once daily, FIG. 33B): reduced total luciferase flux
- tumor growth, 4T1 model, alone or with chemotherapy (4T1; Compound BB 15 mg/kg PO QD 2 weeks, 5-FU 50 mg/kg, docetaxel 33 mg/kg, paclitaxel 10 mg/kg IP): reduction in tumor growth
- anti-tumor activity, subcutaneous 4T1 breast cancer model (4T1; single agent, FIG. 34): single agent activity
- maintenance of anti-tumor effect after discontinuation of treatment (4T1; subcutaneous 4T1): at least 6 days
- oral exposure [2]: high
- inhibition of CXCL12-induced pAKT in T-cells [3]: inhibited CXCL12-induced pAKT in T-cells more strongly
- inhibition of spleen T cell proliferation by cells isolated from tumors of treated mice ([4]; compared to tumor derived cells from vehicle treated mice): less inhibitory of spleen T cell proliferation
- immune suppressive environment ([4]; ex vivo T-cell proliferation assay): reduces immune suppressive environment
- AUC(0-t) [5]: 83700 ng·h/mL
- IC50 (human hepatocytes): 10 to 25 µM
- tumor growth (tumor; Compound BB alone): achieves a reduction in tumor growth
- tumor growth (tumor; co-administration of Compound BB and 5-FU): achieves a further reduction
